Results on one molecule are retold here after patent US9682060B2, “Small molecules that induce intrinsic pathway apoptosis” (The Board of Trustees of the University of Illinois, priority 2015, dated 2017).

Entries after “also recorded” stand apart in the source; their conditions may differ.

Data set [1] concerns U-937 cells. The experiment in a line: Annexin V/PI cell viability analysis. As to conditions: U-937 cells; 10 μM; time course AV/PI, based on data in FIG. 1F.
The next data set concerns HL-60 VCR. The experiment in a line: Raptinal toxicity in various cell lines, 24 hour IC50. The data set is classed as cell-based. As to conditions: HL60/VCR; HL-60 VCR (Human Leukemia Vincristine Resistant); 24 hour incubation; mean ± SD. The protocol: (§1) MTS Assay for Suspension Cells.
(§2) Serial dilutions of compound in 100% DMSO were added in triplicate (2 μL to each well) to empty wells of a 96-well plate. Suspension cells (HL-60, U-937, SKW 6.4, Jurkat W T, Jurkat CASP8^−/−, Jurkat FADD^−/−, Jurkat Bcl-2) cells in RPMI 1640 media were added to 96-well plates (198 μL containing 4×10^4 cells) and the cells incubated for 24 hours.

A further data set is described as follows: in vitro. As to conditions: human, U-937 cells.
The next data set relates to Jurkat cells. In words: AV/PI assay in Jurkat cell lines (WT, caspase-8 deletion, FADD deletion, Bcl-2 upregulation). In kind it is cell-based, Human. The note with it: 10 μM, 2 hours.
For data set [2], the system named is U-937 cells. In words: Immunoblotting of caspase activation and PARP-1 cleavage. In kind it is cell-based, Human. As to conditions: 10 μM. The protocol:
U-937 cells (3×10^6 cells in 2 mL RPMI) or SKW 6.4 cells (5×10^6 cells in 2 mL RPMI) were treated with compound (1% final DMSO v/v) for the appropriate period of time. After centrifugation and washing with PBS, cells were lysed with RIPA lysis buffer containing protease cocktail inhibitor III (Calbiochem) and cell debris removed by centrifugation (16000×g 5 min). The lysate concentrations were normalized after determination of protein concentration by the Bradford assay and whole cell lysate (40-60 μg) was resolved by 4-20% gradient SDS-PAGE gel electrophoresis at 120 V for 70 min after which proteins were transferred onto PVDF membranes (60 V for 2 hours) and blocked in 5% BSA or fat-free milk in TBST (as per primary antibody manufacturer's instructions) overnight at 4° C. The membranes were blotted for molecules of interest with primary antibody (1:1000 in 5% BSA or milk in TBST) overnight at 4° C. The bound primary antibodies were detected using appropriate secondary HRP conjugated antibodies (1:5000 in TBST) for 1 hour at room temperature and visualized by ECL autoradiography or with an Image Quant LAS 4010. The membranes were stripped in acidic methanol, blocked and re-probed as necessary.
Induction of Necroptosis and Observation of Phospho-MLKL by Immunoblot.
[…]. Cells were then treated with TNFα (10 ng/ml) in the presence of cycloheximide (20 μg/ml) for (1% final DMSO v/v) for the appropriate period of time. After centrifugation and washing with PBS, cells were lysed with RIPA lysis buffer containing protease cocktail inhibitor III (Calbiochem) and Phosphatase Inhibitor IV (BioVision). Samples were further processed for immunblot analysis as described above.

In a further data set the test system is 4T1 breast cancer. In words: Syngeneic subcutaneous tumor model. The note with it: 4T1 model; 20 mg/kg IP once daily for 4 days. In kind it is in vivo, BALB/c mice. How it is done: All animal studies were performed with prior approval by the University of Illinois at Urbana-Champaign IACUC committee. […]. Seven days (for B16-F10) and six days (for 4T1) after inoculation, the mice were randomized based upon tumor size with 7 mice per group. Vehicle or compound was administered intraperitoneally as a corn oil DMSO suspension (300 μL of 10% DMSO in trans fat-free corn oil, 20 mg/kg) once daily for 3 consecutive days for B16-F10 and 4 consecutive days for 4T1 models. Tumor measurements were performed every other day using a caliper and tumor volume was calculated using the equation (0.5×l×w^2).

The format of data set [3] is in vivo, C57BL/6 mice. The note with it: mice; single-dose intravenous 15-60 mg/kg. The protocol:
Pharmacokinetics and Toxicity Profiling in Mice.
All animal studies were performed with prior approval by the University of Illinois at Urbana-Champaign IACUC committee. Eight week old female C57BL/6 mice were used for all pharmacokinetic and toxicity experiments. […]. For toxicity assessment, Raptinal was administered intravenously as a single-dose injection across a dose range of 15-60 mg/kg, and mice were sacrificed 7 days post-injection for evidence of hematologic toxicity (n=3 mice/group).

Another data set concerns MCF10A. In words: Raptinal toxicity in various cell lines, 24 hour IC50. The data set is classed as cell-based. As to conditions: MCF-10A; MCF10A (Human Breast Tissue); 24 hour incubation; mean ± SD.
The test system of a further data set is HL-60 cells. In words: High-throughput cell death screen (MTS). The note with it: 1 μM, 24 hours. In kind it is cell-based, human. How it is done:
High-Throughput Cell Death Screen.
HL-60 cells were plated into 384 well plates (50 μL of 2×10^6 cells/mL per well) in RPMI cell culture media. Library compounds were transferred using a 384-pin transfer apparatus (V & P Scientific, San Diego) which transferred 0.1 μL from 10 mM DMSO stock solutions to achieve a final concentration of 20 μM. Controls containing DMSO only and 10 μM etoposide were used to serve as live and dead controls respectively. The cells were incubated for 24 hours.

The next data set relates to Jurkat. In words: Raptinal toxicity, 24 hour IC50 (MTS assay for suspension cells). The data set is classed as cell-based. As to conditions: Jurkat (Human Leukemia); 24 hour incubation; mean ± SD. How it is done:
as §1, §2
(In general: Tetrazolium assays rely on reduction of a dye to a coloured formazan, in cell work by metabolically active cells.)

For the next data set, the system named is U-937. Described as above. In kind it is cell-based. The note with it: U-937 (Human Lymphoma); 24 hour incubation; mean ± SD. How it is done:
as §1, §2

In a further data set the test system is SKW 6.4. Described as above. As to conditions: SKW 6.4 (Human Lymphoma); 24 hour incubation; mean ± SD. In kind it is cell-based. How it is done: as §1, §2
The subject of a further data set is HL-60. The description is as above. In kind it is cell-based. As to conditions: HL-60 (Human Leukemia); 24 hour incubation; mean ± SD. How it is done: as §1, §2

A word on the IC50: it is the concentration at which inhibition is half-maximal. A lower IC50 goes with greater potency. Take `O=CC1(C2(C=O)c3ccccc3-c3ccccc32)c2ccccc2-c2ccccc21` [Raptinal, [9,9′]bifluorenyl-9,9′-dicarbaldehyde]: the “Time to 50% death” value in the data set with U-937 cells [1] was found to be 1.5 h. The IC50 amounted to 1600 ± 500 nM with HL-60 VCR; 3000 ± 200 nM in the data set on MCF10A; 2700 ± 900 nM in the data set with Jurkat; 700 ± 300 nM with U-937; 1100 ± 100 nM in the data set on SKW 6.4; 2100 ± 1400 nM in the data set with HL-60. The molecule further registered a cytotoxicity at 2 h, 10 µM in the data set “in vitro” of around 80%. Besides, in the data set on Jurkat cells, the “sensitivity of Jurkat Bcl-2 overexpressing versus wild type cells” value is “less susceptible; also recorded: partial resistance”. Besides, the “sensitivity of Jurkat caspase-8−/− versus wild type cells” value in the data set with Jurkat cells is listed as “equally susceptible; also recorded: equally as sensitive”. The “time of activation of initiator caspase-9” value in the data set on U-937 cells [2] was found to be 20 min. The “time to complete cleavage of procaspase-9, procaspase-8 and procaspase-3” value in the data set with U-937 cells [2] was at most 45 min. Besides, the “cleavage of procaspase-1 (pyroptosis/pyronecrosis)” value in the data set on U-937 cells [2] (Western blot) is reported as “neither”. Besides, in the data set with U-937 cells [2] (one hour treatment), the “activation of procaspase-3 to caspase-3 (immunoblot)” value is listed as “complete activation”. The “cleavage of PARP-1 (116 to 89 kDa form)” value in the data set with U-937 cells [2] (one hour, versus the other toxins) is recorded as “Significantly more abundant cleavage”. This molecule came in with a growth inhibition in the data set with 4T1 breast cancer of 50%. Further, the tolerability result in data set [3] is “well tolerated”. Besides, the “cell death in retest of screen hits” value with HL-60 cells is recorded as “quantitative cell death”.
